Source: patent US12622909B2, “Allosteric EGFR inhibitors and methods of use thereof” (Dana-Farber Cancer Institute, Inc., priority 2019, dated 2026)
Where a name gives a salt, the structure may show the parent alone. Read-outs that look alike come from different tables or passages of the source.

How the values were obtained:
EGFR L858R = EGFR L858R (Homo sapiens, UniProt P00533, L858R); assay: HTRF-based EGFR biochemical assay (L858R); settings: 100 μM ATP, enzyme 0.1 nM
How it was run: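 Reaction started with 100 μM ATP (final) for 20 min, then quenched with EDTA. Phosphorylation detected by HTRF (Eu-cryptate anti-phosphotyrosine/Streptavidin-XL665, 665/620 nm).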

[1] = target: EGFR L858R/T790M mutant Ba/F3 cells (Homo sapiens, UniProt P00533, T790M/L858R, cells depend on it); assay: Ba/F3 cell proliferation (Cell Titer Glo); type: cell-based, murine; settings: 72 hours
How it was run: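 Ba/F3 cells retrovirally transduced with the EGFR construct and puromycin-selected (2 μg/ml), grown in RPMI 1640 with 10% FBS. Viability read by Cell Titer Glo luminescence (ATP content), triplicate points, experiments repeated at least three times. Curves fitted by non-linear sigmoidal dose-response regression.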

EGFR L858R/T790M = EGFR L858R/T790M (Homo sapiens, UniProt P00533, L858R/T790M); assay: HTRF-based EGFR biochemical assay (L858R/T790M); settings: 100 μM ATP, enzyme 0.02 nM
How it was run: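 Mutant EGFR preincubated 30 min with compound at room temperature, then reacted 20 min with 1 μM biotinylated tyrosine kinase peptide and 100 μM ATP in 50 mM HEPES pH 7.0, 5 mM MgCl2, 1 mM MnCl2, 0.01% BSA, 2 mM TCEP, 0.1 mM NaVO4. Phosphorylation read by HTRF.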

[2] = in combination with 1 μg/ml cetuximab, read-out: Cell IC50 BaF3 L858R/T790M compound + cetuximab
[3] = single agent, read-out: Cell IC50 EGFR BaF3 L858R/T790M

Chain of EGFR L858R/T790M (P00533 25-1210 T790M/L858R): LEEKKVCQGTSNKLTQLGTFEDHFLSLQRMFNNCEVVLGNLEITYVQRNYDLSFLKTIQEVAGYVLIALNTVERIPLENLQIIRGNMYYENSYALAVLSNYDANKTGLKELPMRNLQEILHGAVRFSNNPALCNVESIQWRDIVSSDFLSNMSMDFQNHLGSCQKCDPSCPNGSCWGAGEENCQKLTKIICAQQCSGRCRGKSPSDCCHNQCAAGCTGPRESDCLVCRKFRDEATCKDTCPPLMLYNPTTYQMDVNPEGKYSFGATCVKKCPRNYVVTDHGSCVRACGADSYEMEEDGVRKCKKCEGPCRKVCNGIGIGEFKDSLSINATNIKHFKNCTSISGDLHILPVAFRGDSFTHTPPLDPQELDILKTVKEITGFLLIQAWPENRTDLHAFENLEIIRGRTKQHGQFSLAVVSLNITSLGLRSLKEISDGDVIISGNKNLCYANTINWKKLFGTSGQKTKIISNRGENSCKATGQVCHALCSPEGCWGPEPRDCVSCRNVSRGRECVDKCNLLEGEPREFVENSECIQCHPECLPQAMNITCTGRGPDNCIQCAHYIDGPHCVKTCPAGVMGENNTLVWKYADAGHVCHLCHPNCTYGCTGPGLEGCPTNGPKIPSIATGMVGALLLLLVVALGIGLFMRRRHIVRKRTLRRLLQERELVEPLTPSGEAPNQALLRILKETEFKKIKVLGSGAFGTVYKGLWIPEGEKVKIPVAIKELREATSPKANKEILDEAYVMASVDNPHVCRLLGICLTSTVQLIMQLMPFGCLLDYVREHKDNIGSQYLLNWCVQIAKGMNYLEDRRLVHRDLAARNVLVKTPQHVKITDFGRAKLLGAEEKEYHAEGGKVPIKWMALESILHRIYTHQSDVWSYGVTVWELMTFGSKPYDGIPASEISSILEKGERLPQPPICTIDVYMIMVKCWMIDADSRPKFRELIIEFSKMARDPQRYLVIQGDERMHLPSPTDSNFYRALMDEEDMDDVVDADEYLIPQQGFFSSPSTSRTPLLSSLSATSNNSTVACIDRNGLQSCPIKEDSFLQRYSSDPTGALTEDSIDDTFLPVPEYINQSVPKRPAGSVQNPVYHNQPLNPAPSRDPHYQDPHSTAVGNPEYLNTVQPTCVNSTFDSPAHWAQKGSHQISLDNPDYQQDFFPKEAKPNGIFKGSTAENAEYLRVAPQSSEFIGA
Chain of EGFR L858R/T790M mutant Ba/F3 cells (P00533 whole entry T790M/L858R): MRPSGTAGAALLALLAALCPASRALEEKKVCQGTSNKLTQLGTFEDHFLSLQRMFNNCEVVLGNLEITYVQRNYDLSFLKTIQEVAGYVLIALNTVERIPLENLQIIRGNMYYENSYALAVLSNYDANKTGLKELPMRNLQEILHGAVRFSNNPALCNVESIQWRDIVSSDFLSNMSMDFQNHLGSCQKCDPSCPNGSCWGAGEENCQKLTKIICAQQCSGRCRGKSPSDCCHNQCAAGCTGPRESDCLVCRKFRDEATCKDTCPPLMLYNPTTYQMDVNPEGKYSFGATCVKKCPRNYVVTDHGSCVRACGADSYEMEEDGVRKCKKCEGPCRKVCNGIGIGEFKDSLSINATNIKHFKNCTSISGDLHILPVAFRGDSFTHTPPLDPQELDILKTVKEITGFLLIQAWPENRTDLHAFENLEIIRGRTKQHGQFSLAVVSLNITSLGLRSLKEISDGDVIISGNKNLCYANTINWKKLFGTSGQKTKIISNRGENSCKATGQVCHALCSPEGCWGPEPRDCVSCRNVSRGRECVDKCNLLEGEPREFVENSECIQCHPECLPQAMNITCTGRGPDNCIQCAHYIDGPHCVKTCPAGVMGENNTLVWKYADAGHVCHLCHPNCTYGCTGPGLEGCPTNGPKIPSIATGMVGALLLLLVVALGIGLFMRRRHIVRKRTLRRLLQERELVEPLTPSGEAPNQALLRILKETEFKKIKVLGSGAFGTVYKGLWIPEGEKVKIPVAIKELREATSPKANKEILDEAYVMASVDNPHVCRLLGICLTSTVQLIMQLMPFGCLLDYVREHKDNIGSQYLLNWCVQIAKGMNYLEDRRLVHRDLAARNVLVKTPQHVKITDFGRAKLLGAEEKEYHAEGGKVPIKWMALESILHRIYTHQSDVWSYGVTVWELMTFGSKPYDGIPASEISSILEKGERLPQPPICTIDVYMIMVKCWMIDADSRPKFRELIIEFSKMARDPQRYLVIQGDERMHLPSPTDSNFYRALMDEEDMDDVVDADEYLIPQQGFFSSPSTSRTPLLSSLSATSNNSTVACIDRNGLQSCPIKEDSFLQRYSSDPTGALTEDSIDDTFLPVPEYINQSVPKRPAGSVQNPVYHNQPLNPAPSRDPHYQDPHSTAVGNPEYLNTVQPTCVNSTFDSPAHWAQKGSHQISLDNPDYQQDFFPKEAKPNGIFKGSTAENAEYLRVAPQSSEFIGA
Chain of EGFR L858R (P00533 25-1210 L858R): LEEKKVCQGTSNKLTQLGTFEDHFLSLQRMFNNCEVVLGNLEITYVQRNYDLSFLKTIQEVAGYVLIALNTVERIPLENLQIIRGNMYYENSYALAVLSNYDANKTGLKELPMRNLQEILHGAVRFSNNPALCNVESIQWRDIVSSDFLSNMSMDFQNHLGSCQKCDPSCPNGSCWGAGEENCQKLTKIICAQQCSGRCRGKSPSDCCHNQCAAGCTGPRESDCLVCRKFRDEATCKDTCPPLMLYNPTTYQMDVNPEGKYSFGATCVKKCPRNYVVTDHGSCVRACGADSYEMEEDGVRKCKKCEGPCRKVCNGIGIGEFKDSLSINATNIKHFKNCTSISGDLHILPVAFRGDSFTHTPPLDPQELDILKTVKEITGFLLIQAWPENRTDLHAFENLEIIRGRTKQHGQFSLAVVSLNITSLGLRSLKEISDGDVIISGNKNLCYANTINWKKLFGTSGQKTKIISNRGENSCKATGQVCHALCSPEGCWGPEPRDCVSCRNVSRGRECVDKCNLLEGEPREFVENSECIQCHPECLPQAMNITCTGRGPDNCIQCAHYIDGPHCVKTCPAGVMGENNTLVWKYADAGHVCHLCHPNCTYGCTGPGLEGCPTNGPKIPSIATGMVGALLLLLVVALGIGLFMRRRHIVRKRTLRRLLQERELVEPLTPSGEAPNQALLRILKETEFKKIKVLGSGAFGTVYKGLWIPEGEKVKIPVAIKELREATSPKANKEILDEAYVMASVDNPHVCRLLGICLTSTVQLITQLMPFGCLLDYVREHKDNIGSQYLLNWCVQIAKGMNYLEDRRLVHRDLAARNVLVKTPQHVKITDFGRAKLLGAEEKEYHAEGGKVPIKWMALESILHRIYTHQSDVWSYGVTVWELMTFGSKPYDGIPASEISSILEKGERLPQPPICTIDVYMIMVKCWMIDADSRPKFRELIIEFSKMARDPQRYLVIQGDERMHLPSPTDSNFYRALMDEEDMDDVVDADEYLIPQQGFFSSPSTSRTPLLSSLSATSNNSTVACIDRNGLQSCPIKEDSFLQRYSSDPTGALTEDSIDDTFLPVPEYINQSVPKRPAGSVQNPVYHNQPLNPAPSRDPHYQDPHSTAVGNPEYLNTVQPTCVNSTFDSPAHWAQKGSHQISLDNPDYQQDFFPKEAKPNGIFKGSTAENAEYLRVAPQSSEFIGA

CN1CCN(c2ccc(-c3ccc4c(=O)n(C(C(=O)Nc5nccs5)c5ccccc5)cnc4c3)cc2)CC1 (stereo not drawn) [Compound 013, 2-(7-(4-(4-Methylpiperazin-1-yl)-phenyl)-4-oxoquinazolin-3(4H)-yl)-2-phenyl-N-(thiazol-2-yl)acetamide]
IC50 (EGFR L858R): 14 nM
GI50 [1, 2]: 380 nM
GI50 [1, 3]: 2000 nM
IC50 (EGFR L858R/T790M): 3 nM

CN1CCC(c2ccc(-c3ccc4ncn(C(C(=O)Nc5ccccn5)c5cc(F)ccc5O)c(=O)c4c3)cc2)CC1 (stereo not drawn) [Compound 082, 2-(5-Fluoro-2-hydroxyphenyl)-2-(6-(4-(1-methylpiperidin-4-yl)phenyl)-4-oxoquinazolin-3(4H)-yl)-N-(pyridin-2-yl)acetamide; hydrochloride]
IC50 (EGFR L858R): 1 nM
GI50 [1, 2]: 2 nM
GI50 [1, 3]: 230 nM
IC50 (EGFR L858R/T790M): 0.2 nM

O=C(Nc1nccs1)C(c1ccccc1)n1ccc2ccc(Br)cc2c1=O (stereo not drawn) [Compound 004, 2-(7-Bromo-1-oxoisoquinolin-2(1H)-yl)-2-phenyl-N-(thiazol-2-yl)-acetamide]
IC50 (EGFR L858R): 521 nM
GI50 [1, 2]: 790 nM
GI50 [1, 3]: > 10000 nM
IC50 (EGFR L858R/T790M): 29 nM

CN1CCC(c2ccc(-c3ccc4c(=O)n(C(C(=O)Nc5nccs5)c5ccccc5)ccc4c3)cc2)CC1 (stereo not drawn) [Compound 016, 2-(6-(4-(1-Methylpiperidin-4-yl)-phenyl)-1-oxoisoquinolin-2(1H)-yl)-2-phenyl-N-(thiazol-2-yl)acetamide]
IC50 (EGFR L858R): 3 nM
GI50 [1, 2]: 20 nM
GI50 [1, 3]: 1190 nM
IC50 (EGFR L858R/T790M): 1 nM

COc1cccc(F)c1C(C(=O)Nc1nccs1)n1cnc2ccc(-c3ccc(C4CCN(C)CC4)cc3)cc2c1=O (stereo not drawn) [Compound 078]
IC50 (EGFR L858R): 8 nM
GI50 [1, 2]: 620 nM
GI50 [1, 3]: 4200 nM
IC50 (EGFR L858R/T790M): 1 nM

CN1CCC(c2ccc(-c3ccc4c(=O)n(C(C(=O)Nc5nccs5)c5cccc(F)c5)cnc4c3)cc2)CC1 (stereo not drawn) [Compound 028, 2-(3-Fluorophenyl)-2-(7-(4-(1-methyl-piperidin-4-yl)phenyl)-4-oxo-quinazolin-3(4H)-yl)-N-(thiazol-2-yl)-acetamide]
IC50 (EGFR L858R): 21 nM
GI50 [1, 2]: 88 nM
GI50 [1, 3]: 1580 nM
IC50 (EGFR L858R/T790M): 7 nM

CN1CCC(c2ccc(-c3ccc4c(=O)n(C(C(=O)Nc5nccs5)c5ccccc5)cnc4c3)cc2)CC1 (stereo not drawn) [Compound 012, 2-(7-(4-(1-Methylpiperidin-4-yl)phenyl)-4-oxoquinazolin-3(4H)-yl)-2-phenyl-N-(thiazol-2-yl)acetamide]
IC50 (EGFR L858R): 11 nM
GI50 [1, 2]: 200 nM
GI50 [1, 3]: 2150 nM
IC50 (EGFR L858R/T790M): 6 nM

CN1CCN(c2ccc(-c3ccc4ncn(C(C(=O)Nc5ccccn5)c5cccc(F)c5)c(=O)c4c3)cc2)CC1 (stereo not drawn) [Compound 033, 2-(3-Fluorophenyl)-2-(6-(4-(4-methyl-piperazin-1-yl)phenyl)-4-oxo-quinazolin-3(4H)-yl)-N-(pyridin-2-yl)-acetamide]
IC50 (EGFR L858R): 51 nM
GI50 [1, 2]: 44 nM
GI50 [1, 3]: 1550 nM
IC50 (EGFR L858R/T790M): 2 nM

CN1CCN(c2ccc(-c3ccc4ncn(C(C(=O)Nc5nccs5)c5ccccc5)c(=O)c4c3)cc2)CC1 (stereo not drawn) [Compound 015, 2-(6-(4-(4-Methylpiperazin-1-yl)-phenyl)-4-oxoquinazolin-3(4H)-yl)-2-phenyl-N-(thiazol-2-yl)acetamide]
IC50 (EGFR L858R): 7 nM
GI50 [1, 2]: 20 nM
GI50 [1, 3]: 2320 nM
IC50 (EGFR L858R/T790M): 1 nM

CN1CCC(c2ccc(-c3ccc4ncn(C(C(=O)Nc5nccs5)c5c(O)cccc5F)c(=O)c4c3)cc2)CC1 (stereo not drawn) [Compound 086, 2-(2-Fluoro-6-hydroxyphenyl)-2-(6-(4-(1-methylpiperidin-4-yl)phenyl)-4-oxoquinazolin-3(4H)-yl)-N-(thiazol-2-yl)acetamide]
IC50 (EGFR L858R): 2 nM
GI50 [1, 2]: 33 nM
GI50 [1, 3]: 3160 nM
IC50 (EGFR L858R/T790M): 0.4 nM

CN1CCN(c2ccc(-c3ccc4c(F)cn(C(C(=O)Nc5nccs5)c5ccccc5)c(=O)c4c3)cc2)CC1 (stereo not drawn) [Compound 037, 2-(4-Fluoro-7-(4-(4-methylpiperazin-1-yl)phenyl)-1-oxoisoquinolin-2(1H)-yl)-2-phenyl-N-(thiazol-2-yl)-acetamide]
IC50 (EGFR L858R): 8 nM
GI50 [1, 2]: 22 nM
GI50 [1, 3]: 2650 nM
IC50 (EGFR L858R/T790M): 1 nM

CN1CCC(c2ccc(-c3ccc4ncn(C(C(=O)Nc5nccs5)c5ccccc5)c(=O)c4n3)cc2)CC1 (stereo not drawn) [Compound 073, 2-(6-(4-(1-Methylpiperidin-4-yl)-phenyl)-4-oxopyrido[3,2-d]-pyrimidin-3(4H)-yl)-2-phenyl-N-(thiazol-2-yl)acetamide]
IC50 (EGFR L858R): 7 nM
GI50 [1, 2]: 15 nM
GI50 [1, 3]: 1940 nM
IC50 (EGFR L858R/T790M): 0.6 nM

O=C(Nc1nccs1)C(c1cccc(F)c1)n1cnc2ccc(Br)cc2c1=O (stereo not drawn) [Compound 011, 2-(6-Bromo-4-oxoquinazolin-3(4H)-yl)-2-(3-fluorophenyl)-N-(thiazol-2-yl)acetamide]
IC50 (EGFR L858R): 195 nM
GI50 [1, 2]: 350 nM
GI50 [1, 3]: > 10000 nM
IC50 (EGFR L858R/T790M): 16 nM

CN1CCN(c2ccc(-c3ccc4ncn(C(C(=O)Nc5ccccn5)c5ccccc5)c(=O)c4c3)cc2)CC1 (stereo not drawn) [Compound 039, 2-(6-(4-(4-Methylpiperazin-1-yl)-phenyl)-4-oxoquinazolin-3(4H)-yl)-2-phenyl-N-(pyridin-2-yl)acetamide]
IC50 (EGFR L858R): 191 nM
GI50 [1, 2]: 76 nM
GI50 [1, 3]: 1780 nM
IC50 (EGFR L858R/T790M): 9 nM

CN1CCC(c2ccc(-c3ccc4ccn(C(C(=O)Nc5nccs5)c5cccc(F)c5)c(=O)c4c3)cc2)CC1 (stereo not drawn) [Compound 024, 2-(3-Fluorophenyl)-2-(7-(4-(1-methylpiperidin-4-yl)phenyl)-1-oxoisoquinolin-2(1H)-yl)-N-(thiazol-2-yl)-acetamide]
IC50 (EGFR L858R): 7 nM
GI50 [1, 2]: 90 nM
GI50 [1, 3]: 1770 nM
IC50 (EGFR L858R/T790M): 1 nM
